For 27 molecules, IC50 results are on record in patent US20080114007A1 (priority 2006, published 2008).

The assay addresses CSF-1R (Homo sapiens, UniProt P07333). As to the kind of experiment: Peptide (non-phosphorylated) assay, fluorescence polarization competition immunoassay. The class given is biochemical. The conditions noted are these: 0.7 nM CSF-1R, 308 μM SYEGNSYTFIDPTQ peptide, 1 mM ATP, 80 min; mean of at least three determinations; read-out: c-fms Peptide IC50. Summed up:
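Read-out is fluorescence polarization: after EDTA quench, anti-phosphotyrosine antibody plus PTK green tracer compete with the phosphorylated peptide for 30 min. The CSF-1R reaction itself ran 80 min at room temperature after ATP addition. DMSO (4%) wells served as controls, positive controls pre-treated with EDTA.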
(Polarisation of emitted light reports the rotation of a fluorescent probe.)

Sequence of CSF-1R (P07333 20-972): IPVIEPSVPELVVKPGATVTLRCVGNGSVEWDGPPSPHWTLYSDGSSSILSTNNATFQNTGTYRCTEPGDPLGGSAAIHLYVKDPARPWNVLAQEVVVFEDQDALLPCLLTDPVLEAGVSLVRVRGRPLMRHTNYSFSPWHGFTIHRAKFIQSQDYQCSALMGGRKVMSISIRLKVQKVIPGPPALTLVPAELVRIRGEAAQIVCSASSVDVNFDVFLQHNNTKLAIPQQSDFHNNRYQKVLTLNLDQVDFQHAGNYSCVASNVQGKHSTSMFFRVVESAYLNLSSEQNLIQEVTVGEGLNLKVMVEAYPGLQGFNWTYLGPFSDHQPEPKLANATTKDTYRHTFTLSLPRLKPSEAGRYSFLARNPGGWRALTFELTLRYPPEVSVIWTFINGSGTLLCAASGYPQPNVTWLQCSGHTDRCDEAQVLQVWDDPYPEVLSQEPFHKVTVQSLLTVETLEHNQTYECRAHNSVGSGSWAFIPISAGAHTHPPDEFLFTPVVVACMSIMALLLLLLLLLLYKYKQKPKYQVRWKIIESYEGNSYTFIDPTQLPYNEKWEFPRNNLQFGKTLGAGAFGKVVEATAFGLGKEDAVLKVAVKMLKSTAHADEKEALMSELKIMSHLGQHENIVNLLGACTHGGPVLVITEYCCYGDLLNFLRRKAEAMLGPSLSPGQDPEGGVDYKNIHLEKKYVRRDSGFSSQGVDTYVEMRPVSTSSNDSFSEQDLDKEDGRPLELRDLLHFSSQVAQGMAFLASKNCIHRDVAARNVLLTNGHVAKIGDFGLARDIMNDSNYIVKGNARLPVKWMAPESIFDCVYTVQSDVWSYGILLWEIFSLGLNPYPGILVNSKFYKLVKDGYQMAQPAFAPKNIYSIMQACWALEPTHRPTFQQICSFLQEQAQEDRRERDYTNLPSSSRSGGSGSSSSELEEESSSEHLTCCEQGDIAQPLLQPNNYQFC

The term IC50 denotes the concentration at which inhibition is half-maximal. Regarding `CONC(=O)c1cn(-c2ccc3c(c2)CCC3)c2nc(Nc3ccc4c(ccn4C)c3)ncc2c1=O` [Cpd 291, 8-indan-5-yl-2-(1-methyl-1H-indol-5-ylamino)-5-oxo-5,8-dihydro-pyrido[2,3-d]pyrimidine-6-carboxylic acid methoxy-amide], the IC50 is 1.3 nM.

As to `CONC(=O)c1cn(-c2ccc3c(c2)CCC3)c2nc(Nc3ccc(C4CCN(CC(F)(F)F)CC4)cc3)ncc2c1=O` [Cpd 292, 8-indan-5-yl-5-oxo-2-{4-[1-(2,2,2-trifluoro-ethyl)-piperidin-4-yl]-phenylamino}-5,8-dihydro-pyrido[2,3-d]pyrimidine-6-carboxylic acid methoxy-amide], the concentration for half-maximal inhibition (IC50) was 6 nM.

For the molecule `CONC(=O)c1cn(-c2ccc3c(c2)CCC3)c2nc(Nc3ccc(C4CCN(CC(F)(F)C(F)(F)F)CC4)cc3)ncc2c1=O` [Cpd 293, 8-indan-5-yl-5-oxo-2-{4-[1-(2,2,3,3,3-pentafluoro-propyl)-piperidin-4-yl]-phenylamino}-5,8-dihydro-pyrido[2,3-d]pyrimidine-6-carboxylic acid methoxy-amide], the half-maximal inhibitory concentration (IC50) came to 2.9 nM.

Turning to `CCc1ccc(-n2cc(C(=O)NOC)c(=O)c3cnc(Nc4ccc5c(c4)OCCOCCOCCOCCOCCO5)nc32)cc1` [Cpd 294, 2-(6,7,9,10,12,13,15,16,18,19-decahydro-5,8,11,14,17,20-hexaoxa-benzocyclooctadecen-2-ylamino)-8-(4-ethyl-phenyl)-5-oxo-5,8-dihydro-pyrido[2,3-d]pyrimidine-6-carboxylic acid methoxy-amide], the IC50 worked out at 0.4 nM.

For `CCc1ccc(-n2cc(C(=O)NOC)c(=O)c3cnc(Nc4ccc(C5CCN(CCc6ccccc6)CC5)cc4)nc32)cc1` [Cpd 295, 8-(4-ethyl-phenyl)-5-oxo-2-[4-(1-phenethyl-piperidin-4-yl)-phenylamino]-5,8-dihydro-pyrido[2,3-d]pyrimidine-6-carboxylic acid methoxy-amide], the concentration for half-maximal inhibition (IC50) worked out at 1.2 nM.

With `CCc1ccc(-n2cc(C(=O)NOC)c(=O)c3cnc(Nc4ccc(O[C@@H]5O[C@H](CO)[C@@H](O)[C@H](O)[C@@H]5O)cc4)nc32)cc1` [Cpd 296, 8-(4-ethyl-phenyl)-5-oxo-2-{4-[(2S,3S,4S,5S,6R)(3,4,5-trihydroxy-6-hydroxymethyl-tetrahydro-pyran-2-yloxy)]-phenylamino}-5,8-dihydro-pyrido[2,3-d]pyrimidine-6-carboxylic acid methoxy-amide], the IC50 stood at 0.8 nM.

Consider `CCc1ccc(-n2cc(C(=O)NOC)c(=O)c3cnc(Nc4ccc5c(c4)OCCOCCOCCOCCO5)nc32)cc1` [Cpd 297, 8-(4-ethyl-phenyl)-2-(6,7,9,10,12,13,15,16-octahydro-5,8,11,14,17-pentaoxa-benzocyclopentadecen-2-ylamino)-5-oxo-5,8-dihydro-pyrido[2,3-d]pyrimidine-6-carboxylic acid methoxy-amide], for which the IC50 was determined as 0.4 nM.

`CCCN1CCC(c2ccc(Nc3ncc4c(=O)c(C(=O)NOC)cn(-c5ccc6c(c5)CCC6)c4n3)cc2)CC1` [Cpd 298, 8-indan-5-yl-5-oxo-2-[4-(1-propyl-piperidin-4-yl)-phenylamino]-5,8-dihydro-pyrido[2,3-d]pyrimidine-6-carboxylic acid methoxy-amide]: the half-maximal inhibitory concentration (IC50) came to 0.4 nM.

As to `CCc1ccc(-n2cc(C(=O)NOC)c(=O)c3cnc(Nc4ccc(-c5cccc(OC)c5)cc4)nc32)cc1` [Cpd 299, 8-(4-ethyl-phenyl)-2-(3′-methoxy-biphenyl-4-ylamino)-5-oxo-5,8-dihydro-pyrido[2,3-d]pyrimidine-6-carboxylic acid methoxy-amide], the IC50 was 32 nM.

In the case of `CONC(=O)c1cn(-c2ccc3c(c2)CCC3)c2nc(Nc3ccccc3)ncc2c1=O` [Cpd 300, 8-indan-5-yl-5-oxo-2-phenylamino-5,8-dihydro-pyrido[2,3-d]pyrimidine-6-carboxylic acid methoxy-amide], the IC50 is 1.5 nM.

Turning to `CCn1cnc2cc(Nc3ncc4c(=O)c(C(=O)NOC)cn(-c5ccc6c(c5)CCC6)c4n3)ccc21` [Cpd 301, 2-(1-ethyl-1H-benzoimidazol-5-ylamino)-8-indan-5-yl-5-oxo-5,8-dihydro-pyrido[2,3-d]pyrimidine-6-carboxylic acid methoxy-amide], the IC50 worked out at 0.9 nM.

Consider `CONC(=O)c1cn(-c2ccc3c(c2)CCC3)c2nc(Nc3ccc4[nH]cnc4c3)ncc2c1=O` [Cpd 302, 2-(1H-benzoimidazol-5-ylamino)-8-indan-5-yl-5-oxo-5,8-dihydro-pyrido[2,3-d]pyrimidine-6-carboxylic acid methoxy-amide], for which the IC50 is 319 nM.

With `CONC(=O)c1cn(-c2ccc3ccccc3c2)c2nc(Nc3ccc(C4CCN(C)CC4)cc3)ncc2c1=O` [Cpd 303, 2-[4-(1-methyl-piperidin-4-yl)-phenylamino]-8-naphthalen-2-yl-5-oxo-5,8-dihydro-pyrido[2,3-d]pyrimidine-6-carboxylic acid methoxy-amide], the IC50 was 1 nM.

With `CCc1ccc(-n2cc(C(=O)NOC)c(=O)c3cnc(Nc4ccc5c(c4)CC(=O)N5)nc32)cc1` [Cpd 304, 8-(4-ethyl-phenyl)-5-oxo-2-(2-oxo-2,3-dihydro-1H-indol-5-ylamino)-5,8-dihydro-pyrido[2,3-d]pyrimidine-6-carboxylic acid methoxy-amide], the IC50 came out at 0.6 nM.

`CCc1ccc(-n2cc(C(=O)NOC)c(=O)c3cnc(Nc4cc(OC)c(OC)c(OC)c4)nc32)cc1` [Cpd 305, 8-(4-ethyl-phenyl)-5-oxo-2-(3,4,5-trimethoxy-phenylamino)-5,8-dihydro-pyrido[2,3-d]pyrimidine-6-carboxylic acid methoxy-amide]: the half-maximal inhibitory concentration (IC50) worked out at 0.7 nM.

Take `CCc1ccc(-n2cc(C(=O)NOC)c(=O)c3cnc(Nc4ccc(-c5ccc(N(C)C)cc5)cc4)nc32)cc1` [Cpd 306, 2-(4′-dimethylamino-biphenyl-4-ylamino)-8-(4-ethyl-phenyl)-5-oxo-5,8-dihydro-pyrido[2,3-d]pyrimidine-6-carboxylic acid methoxy-amide]: the IC50 is 14 nM.

Turning to `CCc1ccc(-n2cc(C(=O)NOC)c(=O)c3cnc(Nc4ccc(OC5CCNCC5)cc4)nc32)cc1` [Cpd 307, 8-(4-ethyl-phenyl)-5-oxo-2-[4-(piperidin-4-yloxy)-phenylamino]-5,8-dihydro-pyrido[2,3-d]pyrimidine-6-carboxylic acid methoxy-amide], the IC50 was 0.4 nM.

`CCc1ccc(-n2cc(C(=O)NOC)c(=O)c3cnc(Nc4ccc(OCCOC)c(OCCOC)c4)nc32)cc1` [Cpd 308, 2-[3,4-bis-(2-methoxy-ethoxy)-phenylamino]-8-(4-ethyl-phenyl)-5-oxo-5,8-dihydro-pyrido[2,3-d]pyrimidine-6-carboxylic acid methoxy-amide]: the 50% inhibitory concentration (IC50) is 0.9 nM.

Regarding `CCc1ccc(-n2cc(C(=O)NOC)c(=O)c3cnc(Nc4ccc(OC5CCN(C)CC5)cc4)nc32)cc1` [Cpd 309, 8-(4-ethyl-phenyl)-2-[4-(1-methyl-piperidin-4-yloxy)-phenylamino]-5-oxo-5,8-dihydro-pyrido[2,3-d]pyrimidine-6-carboxylic acid methoxy-amide], the IC50 was 0.3 nM.

For the molecule `CCc1ccc(-n2cc(C(=O)NOC)c(=O)c3cnc(Nc4ccc(OC5CCN(CC)CC5)cc4)nc32)cc1` [Cpd 310, 8-(4-ethyl-phenyl)-2-[4-(1-ethyl-piperidin-4-yloxy)-phenylamino]-5-oxo-5,8-dihydro-pyrido[2,3-d]pyrimidine-6-carboxylic acid methoxy-amide], the half-maximal inhibitory concentration (IC50) was 0.5 nM.

With `CONC(=O)c1cn(-c2ccc3c(c2)CCC3)c2nc(Nc3ccc(OC4CCNCC4)cc3)ncc2c1=O` [Cpd 311, 8-indan-5-yl-5-oxo-2-[4-(piperidin-4-yloxy)-phenylamino]-5,8-dihydro-pyrido[2,3-d]pyrimidine-6-carboxylic acid methoxy-amide], the IC50 worked out at 0.3 nM.

`CCN1CCC(Oc2ccc(Nc3ncc4c(=O)c(C(=O)NOC)cn(-c5ccc6c(c5)CCC6)c4n3)cc2)CC1` [Cpd 312, 2-[4-(1-ethyl-piperidin-4-yloxy)-phenylamino]-8-indan-5-yl-5-oxo-5,8-dihydro-pyrido[2,3-d]pyrimidine-6-carboxylic acid methoxy-amide]: the IC50 came to 0.2 nM.

Regarding `CONC(=O)c1cn(-c2ccc3c(c2)CCC3)c2nc(Nc3ccc(OC4CCN(C)CC4)cc3)ncc2c1=O` [Cpd 313, 8-indan-5-yl-2-[4-(1-methyl-piperidin-4-yloxy)-phenylamino]-5-oxo-5,8-dihydro-pyrido[2,3-d]pyrimidine-6-carboxylic acid methoxy-amide], the half-maximal inhibitory concentration (IC50) is 0.3 nM.

Take `COCCOc1ccc(Nc2ncc3c(=O)c(C(=O)NOC)cn(-c4ccc5c(c4)CCC5)c3n2)cc1OCCOC` [Cpd 314, 2-[3,4-bis-(2-methoxy-ethoxy)-phenylamino]-8-indan-5-yl-5-oxo-5,8-dihydro-pyrido[2,3-d]pyrimidine-6-carboxylic acid methoxy-amide]: the IC50 turned out to be 0.5 nM.

On to `CONC(=O)c1cn(-c2ccc3c(c2)CCC3)c2nc(Nc3ccc(C4C[C@@]5(C)O[C@@](C)(C4)[C@H]4OC(C)(C)O[C@H]45)cc3)ncc2c1=O` (stereo partly drawn) [Cpd 315, 8-indan-5-yl-5-oxo-2-[4-(2aR,1R,7S,6aS)-(1,4,4,7-tetramethyl-3,5,11-trioxa-tricyclo[5.3.1.0^2,6]undec-9-yl)-phenylamino]-5,8-dihydro-pyrido[2,3-d]pyrimidine-6-carboxylic acid methoxy-amide], for which the concentration for half-maximal inhibition (IC50) is 0.5 nM.

On to `CCc1ccc(-n2cc(C(=O)NOC)c(=O)c3cnc(Nc4ccccc4)nc32)cc1` [Cpd 316, 8-(4-ethyl-phenyl)-5-oxo-2-phenylamino-5,8-dihydro-pyrido[2,3-d]pyrimidine-6-carboxylic acid methoxy-amide], for which the IC50 was determined as 1.8 nM.

Regarding `CCc1ccc(-n2cc(C(=O)NOC)c(=O)c3cnc(Nc4ccc(-n5cccc5)cc4)nc32)cc1` [Cpd 317, 8-(4-ethyl-phenyl)-5-oxo-2-(4-pyrrol-1-yl-phenylamino)-5,8-dihydro-pyrido[2,3-d]pyrimidine-6-carboxylic acid methoxy-amide], the concentration for half-maximal inhibition (IC50) was found to be 5.5 nM.
